Earlier results as cited in patent US20200206299A1, “INHIBITORS OF BETA-ARRESTIN-NEUROKININ 1 RECEPTOR INTERACTIONS FOR THE TREATMENT OF PAIN” (priority 2016, published 2020).

Test system: capsaicin-evoked hyperalgesia
Conditions: intrathecal MEK inhibitor; Ji et al. 2002 is cited

N#CC(=C(/N)Sc1ccccc1N)/C(C#N)=C(\N)Sc1ccccc1N [U0126]
capsaicin-evoked hyperalgesia: inhibited
